The record followed here is US11802107B2, “Compounds and methods of use” (Signum Biosciences, Inc., priority 2017, dated 2023).

Each structure is given as a SMILES string. pIC50: −log10 of the molar value. In brackets after ≈: the same amount, converted by molar mass.

One test deals with TSLP. Briefly: S. aureus-induced TSLP on NHEKs. Format: cell-based. Conditions: Homo sapiens; NHEK, live S. aureus ATCC 33591 1:1, 24 hours, ELISA; read-out: S. aureus-NHEK TSLP Protein IC50. The protocol:
Normal human epidermal keratinocytes (NHEKs) from neonatal donors were obtained from Thermo-Fisher (Cat No. C-001-5C). Cells were cultured in 96-well plates for 24 hours with EpiLife media (Cat No. MEPI500CA) supplemented with keratinocytes growth supplement (Cat No. 50015). On Day 2, media was removed and replaced with supplement-depleted medium for 24 hours. On Day 3, media was removed and cells were pre-treated with test materials (≤[…]) for 2 hours and later co-treated with test materials and live S. aureus (ATCC® 33591) at 1:1 NHEK:bacteria ratio for 24 hours at 37° C. and 5% CO2. After incubation, cell media supernatants were harvested and used to measure TSLP levels using ELISA kit (R&D Systems® #DY1398). Results were represented as percent of inhibition relative to untreated and S. aureus-only treated cells. IC50 values were determined by non-linear regression analysis using the four-parameter logistic equation.

In another test the test system is IL-4. Briefly: T-cell receptor (anti-CD3/CD28)-induced IL-4 on PBMCs. Conditions: Homo sapiens, PBMC, anti-CD3/CD28 beads, 24 hours, ELISA, read-out: TCR-PBMCs IL-4 Protein IC50. Format: cell-based. The protocol:
(§1) Cryopreserved human Peripheral Blood Mononuclear cells (PBMCs) from healthy adult donors were obtained from Zen Bio, Inc (Cat No. SER-PBMC-F). Cells were cultured in 96-well plates with lymphocyte media (Cat No. LYMPH-1) and were pre-treated with test materials (≤100 μM) for 2 hours and later co-treated with test materials and anti-CD3/CD28 beads (Thermo-Fisher; Cat No. 11131D) at 1:0.4 PBMC:bead ratio for 24 hours at 37° C. and 5% CO2. After incubation, cell media supernatants were harvested and used to measure cytokine levels (IL-4, IL-5, IL-10) using ELISA kits (BD Biosciences® #555194, #555157; R&D Systems® #DY317). Results were represented as percent of inhibition relative to untreated and anti-CD3/CD28 beads-only treated cells. IC50 values were determined by non-linear regression analysis using the four-parameter logistic equation.

Another test relates to IL-5. Briefly: T-cell receptor (anti-CD3/CD28)-induced IL-5 on PBMCs. Format: cell-based. Conditions: Homo sapiens, PBMC, anti-CD3/CD28 beads, 24 hours, ELISA, read-out: TCR-PBMCs IL-5 Protein IC50. The method, then:
as §1
(An ELISA detects its analyte on a solid surface through an enzyme-linked reagent.)

The test system of a further test is Swiss Webster (ICR) mice. Briefly: TPA-induced skin irritation in vivo model (mouse ear). Conditions: 24 hour. The protocol:
Outbred male Swiss Webster (ICR) mice were purchased from Hilltop Lab Animals (Scottdale, PA) and were used between 10 and 12 weeks of age and we followed a similar protocol previously described (Gordon et al., 2008). Mice received 1.2 μg/20 μl TPA dissolved in acetone (10 μl applied both to the dorsal and ventral surfaces of the mouse ear using a solvent pipette) to each ear to induce acute irritation (6 per group). Test Materials were co-treated with TPA or applied 5 minutes after TPA dose, at various concentrations (0.6 to 800 μg/20 μl) in ethanol. After 24 hour treatment, edema was measured by ear thickness.

For a further test, the system named is IL-17. Kind of test: P. acnes-induced IL-17 protein on human PBMCs (ELISA). The format is cell-based. Conditions: PBMC, PBMCs + live P. acnes 1:1, test material 30 PM, 24 hours. The protocol:
(§2) Cryopreserved human Peripheral Blood Mononuclear cells (PBMCs) from healthy adult donors were obtained from Zen Bio, Inc (Cat No. SER-PBMC-F). Cells were cultured in 12-well plates with lymphocyte media (Cat No. LYMPH-1) and incubated with test materials ([…]) and live P. acnes (ATCC® 6919TM) at 1:1 PBMC: P. acnes bacteria ratio for 24 hours at 37° C. and 5% CO2. After incubation, cell media supernatants were harvested and used to measure pro-inflammatory cytokine levels (IL-8, TNF-α, IL-1b, IL-17) using ELISA kits (BD Biosciences® #557966, #555212, #555244; R&D Systems® #DY317). Total RNA was extracted from cells using the RNAqueous® kit (Ambion®; Cat No. 1912) and cDNA was obtained using the High Capacity RNA-to-cDNA kit (Applied Biosystems®; Cat No. 4387406). Quantitative PCR (qPCR) was performed using the TaqMan® Fast Advanced Master Mix (Applied Biosystems®; Cat No. 4444556) and specific TaqMan®-probes human gene primers CXCL8 (IL-8), IL1B (IL-1b), TNF (TNF-α), IL17A (IL-17A) and GAPDH to calculate the relative gene fold expression change per treatment. Gene expression analysis was performed using the comparative Ct method (also known as the 2-[delta][delta]Ct) approach by comparing the Ct values of P. acnes-only treated cells with the untreated samples and normalized to GAPDH gene expression as endogenous housekeeping gene.

The next test relates to P. acnes (ATCC 6919). Briefly: Minimal bactericidal concentration (MBC) against P. acnes. Format: cell-based, Propionibacterium acnes. The following applies: Cutibacterium acnes, ATCC6919; P. acnes 10^7 CFU/mL, in PBS, anaerobic conditions.
The subject of another test is DEFB4B (hBD2). Kind of test: NHEK antimicrobial peptide gene expression, hBD2. The format is cell-based, human. Conditions: 10 μM, 24 hours, qPCR, normalized to GAPDH. The method, then:
(§3) Normal human epidermal keratinocytes (NHEKs) from neonatal donors were obtained from Thermo-Fisher (Cat No. C-001-5C). Cells were cultured in 6-well plates for 24 hours before treatments with EpiLife media (Cat No. MEPI500CA) supplemented with keratinocytes growth supplement (Cat No. 50015). On Day 2, media was removed and incubated with test materials (10 μM) for 24 hours at 37° C. and 5% CO2. On Day 3, total RNA was extracted from cells using the RNAqueous® kit (Ambion®; Cat No. 1912) and cDNA was obtained using the High Capacity RNA-to-cDNA kit (Applied Biosystems®; Cat No. 4387406). Quantitative PCR (qPCR) was performed using the TaqMan® Fast Advanced Master Mix (Applied Biosystems®; Cat No. 4444556) and specific TaqMan®-probes human gene primers DEFB4B (hBD2), DEFB103 (hBD3), HCAP18 and GAPDH to calculate the relative gene fold expression change per treatment. Gene expression analysis was performed using the comparative Ct method (also known as the 2-[delta][delta]Ct) approach by comparing the Ct values of the treated samples with the untreated samples and normalized to GAPDH gene expression as endogenous housekeeping gene. Results were represented as fold-expression/untreated cells.
For orientation: Quantitative PCR measures a nucleic acid by following its amplification.

A further test relates to HCAP18. Kind of test: NHEK antimicrobial peptide gene expression, hCAP18. The following applies: 10 μM, 24 hours, qPCR, normalized to GAPDH. Format: cell-based, human. The method, then: as §3
The next test has as its system CXCL8 (IL-8). Kind of test: P. acnes-induced IL-8 gene on human PBMCs (qPCR). The following applies: PBMC, PBMCs + live P. acnes 1:1, test material 30 PM, 24 hours. The format is cell-based. The protocol:
as §2

Setting [1] is: topical @ 1% w/v, ear thickness.

As a reminder, the pIC50 is −log10 of the IC50, conventionally taken in molar units. With `N#Cc1ccc(Oc2ccc3c(c2)COB3O)cc1` [AN2728, reference compound], the results for the negative logarithm of the IC50 (pIC50) in the test with TSLP, in the test on IL-4 and with IL-5 were 5.30, 5.70 and 6.00, respectively. In the test with Swiss Webster (ICR) mice (topical, AN2728 at 2%), the Edema (% inhibition) turned out to be 43%.
In general, inhibition refers to the relative decrease from the control value, in per cent. For `C/C(=C\CSCC(NC(=O)NCC(=O)O)C(=O)O)CCCC(C)CCCC(C)CCCC(C)C` (stereo not shown) [A], the inhibition at 30 pM in the test with IL-17 was 32%. Besides, the pIC50 with TSLP was 5.05; in the test with IL-4, < 4.00; with IL-5 it was 4.26. The molecule also yielded an Edema (% inhibition) with Swiss Webster (ICR) mice (setting [1]) of 50%.
By MBC is commonly meant the lowest tested concentration that kills the bacteria rather than only halting them. High values mean weaker bactericidal potency, low ones greater bactericidal potency. `C/C(=C\CSC[C@H](NC(=O)N(C)CC(=O)O)C(=O)O)CCCC(C)CCCC(C)CCCC(C)C` (stereo partly drawn) [Compound C, (2R)-2-{[(carboxymethyl)(methyl)carbamoyl]amino}-3-{[(2E)-3,7,11,15-tetramethylhexadec-2-en-1-yl]sulfanyl}propanoic acid] showed an MBC with P. acnes (ATCC 6919) of 22 µg/mL (≈ 42.7 µM). The hBD2 gene expression in the test on DEFB4B (hBD2) is 0.7 Fold-expression/untreated cells. In the test with HCAP18, the hCAP18 gene expression was 0.5 Fold-expression/untreated cells. Moreover, the inhibition at 30 pM in the test on IL-17 and in the test with CXCL8 (IL-8) was 0% in each case. Also, the pIC50 in the test on TSLP is 5.52; in the test with IL-4, 4.70; in the test on IL-5 it was 4.34. Moreover, the MPO (% inhibition) in the test with Swiss Webster (ICR) mice (topical @ 1% w/v) came to 88%. The Edema (% inhibition) in the test with Swiss Webster (ICR) mice (setting [1]) worked out at 64%.
With `C/C(=C\CSC[C@H](NC(=O)N1CCC[C@H]1C(=O)O)C(=O)O)CCCC(C)CCCC(C)CCCC(C)C` (stereo partly shown) [Compound E], in the test with P. acnes (ATCC 6919), the MBC was found to be 7 µg/mL (≈ 12.9 µM). The hBD2 gene expression with DEFB4B (hBD2) was 1.1 Fold-expression/untreated cells. Further, in the test with HCAP18, the hCAP18 gene expression is given as 0.7 Fold-expression/untreated cells. In addition, the inhibition at 30 pM is 23% in the test on IL-17 and 8% in the test on CXCL8 (IL-8). In addition, the pIC50 in the test with IL-4 was 4.38; in the test with IL-5, 4.20.
As to `C/C(=C\CSCC(NC(=O)N(CC(=O)O)CC(=O)O)C(=O)O)CCCC(C)CCCC(C)CCCC(C)C` (stereo not shown) [Compound G], in the test with P. acnes (ATCC 6919), the minimal bactericidal concentration (MBC) was found to be 1 µg/mL (≈ 1.79 µM). The hBD2 gene expression with DEFB4B (hBD2) is given as 2.5 Fold-expression/untreated cells. Besides, the hCAP18 gene expression in the test on HCAP18 is 0.6 Fold-expression/untreated cells. For the same molecule, the values for the inhibition at 30 pM with IL-17 and in the test on CXCL8 (IL-8) were 29% and 0%, respectively.
Turning to `C/C(=C\CSC[C@H](NC(=O)COCC(=O)O)C(=O)O)CCCC(C)CCCC(C)CCCC(C)C` (stereo partly shown) [Compound T], the inhibition at 30 pM in the test with CXCL8 (IL-8) was 0%. Besides, the negative logarithm of the IC50 (pIC50) with TSLP is 5.00; in the test on IL-4 it was 4.60; in the test on IL-5, 5.05. For the same molecule, the MPO (% inhibition) in the test with Swiss Webster (ICR) mice (topical @ 1% w/v) turned out to be 83%. In addition, the Edema (% inhibition) in the test with Swiss Webster (ICR) mice (setting [1]) was 61%.
